Measured values reported in publication PMC12254266, “Multicolored sequential resonance energy transfer for detection of simultaneous ligand binding at G protein-coupled receptors” (Nature Communications, 2025).
Where “and” joins values, the source holds several entries; their conditions need not be identical. Identical values can stand only once.

Tests used:
[1] = molecular target: T1, Nluc-FFA1 (Homo sapiens, UniProt O14842); assay: NanoBRET binding (saturation, competition, kinetics) at N terminal Nluc tagged FFA1; conditions: footnotes of Supplementary Table 3; read-out: Kd values obtained in NanoBRET saturation experiments (used for pKi) (converted)
T1 construct: expressed in transfected cells
T1 sequence (O14842 whole entry): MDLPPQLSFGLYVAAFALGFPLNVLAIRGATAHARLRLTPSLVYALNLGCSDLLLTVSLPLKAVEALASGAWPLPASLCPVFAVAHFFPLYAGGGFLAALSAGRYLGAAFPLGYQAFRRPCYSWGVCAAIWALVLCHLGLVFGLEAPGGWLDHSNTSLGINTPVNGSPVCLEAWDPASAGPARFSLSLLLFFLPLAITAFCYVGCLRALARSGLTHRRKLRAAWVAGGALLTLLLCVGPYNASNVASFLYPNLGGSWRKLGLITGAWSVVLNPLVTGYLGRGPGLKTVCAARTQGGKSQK
Method: (§1) Nluc-FFA1 or FFA1-Nluc Flp-In T-REx 293 cells were plated at 50,000 cells per well in poly-D-lysine coated white 96-well plates. Cells were cultured for 24 h in the plate before medium was replaced with medium containing 100 ng/mL of doxycycline to induce receptor expression. After culturing for a further 24 h, medium was removed, cells were washed with HBSS and incubated in HBSS for 30 min. To start the assay, NanoGlo substrate (Promega, N1110) was added to the cells at a 1:800 final dilution and incubated for 10 min at 37 °C. For endpoint assays, including both saturation and competition binding, test ligands were then added, including both fluorescent and unlabelled competing ligands as indicated, and plates incubated for a further 5 min at 37 °C. NanoBRET was then quantified in a CLARIOstar microplate reader (BMG Labtech) by measuring luminescent emission with the monochrometer set for the Nluc donor at 450–60 nm, and acceptor luminescent emission 540–60 nm (NBD), 600–80 nm (Cy3.5) or 690–100 nm (SulfoCy5), depending on which fluorophore was being tested. The acceptor/donor BRET ratio was then taken as a measure of fluorophore binding. For kinetic on then off NanoBRET experiments plates were washed the same way and substrate was added to the same concentration. However, 10 min after substrate was added plates were inserted into the CLARIOstar microplate reader set to 25 °C to take repeated measurements of luminescent emission for both the donor and the acceptor fluorophore being used. After 5 min of background measurements, the indicated concentration of fluorescent ligand was added using the plate reader injector and luminescent emission was monitored for ~10 min before the reader was paused to manually add a high concentration of appropriate competing ligand to initiate dissociation. The plate was returned to the reader and luminescence measurements were continued for a further 30 min to monitor dissociation of the fluorescent ligand. For kinetic experiments using multiple concentrations of fluorescent ligand, cells were placed in the plate reader immediately after the addition of Nano-Glo substrate and luminescent measurements were taken. After 5 min, the reader was paused to add the indicated concentrations of fluorescent ligand, before measurements were continued. To set non-specific binding for kinetic experiments, the indicated competing ligand was added 5 min before the addition of the fluorescent ligand.

[2] = molecular target: T2, FFA1-Nluc (Homo sapiens, UniProt O14842); assay: NanoBRET binding (saturation, kinetics) at C terminal Nluc tagged FFA1; parameters: expressed in transfected cells; conditions: Sup Fig 7B
T2 sequence (O14842 whole entry): as above
Method: as §1

[3] = molecular target: T2, FFA1-Nluc; assay: DISCo-BRET (endpoint, spectra scan, kinetics) with TUG-2591 and TUG-2597 at C terminal Nluc tagged FFA1; assay type: binding; parameters: expressed in transfected cells; conditions: for Specific BRET (690/540), % of control: Figure 4Aiii; for Specific BRET (690/540), % of control / Specific BRET (540/450), % of control: single replicate values (technical duplicate); for Specific BRET (540/450), % of control: Figure 4Biii
Summary of the method: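 After Nano-Glo substrate (1:800 final), ligand-treated FFA1-Nluc or Nluc-FFA1 cells, doxycycline-induced (100 ng/mL), were read. Kinetic association/dissociation runs were at 25 °C; endpoint and 440–740 nm spectra came after 5 min at 37 °C. Non-specific signal came from competing ligands at high concentration.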

[4] = molecular target: T2, FFA1-Nluc; assay: Ca2+ mobilisation antagonism of FFA1 agonists (TUG-905, T360) in Flp-In T-REx 293 cells expressing FFA1-Nluc; assay type: cell-based; parameters: expressed in transfected cells
Method: Nluc-FFA1, FFA1-Nluc or untagged FFA1 Flp-In T-REx 293 cells were plated at 50,000 cells per well in poly-D-lysine coated black clear bottom 96-well plates. Cells were then cultured for 24 h until reaching confluency before culture medium was replaced with medium containing 100 ng/mL of doxycycline to induce receptor expression. Cells were cultured for a further 24 h before the assay. On the day of the assay culture medium was removed and replaced with medium containing 3 μM Fura2-AM Ca^2+ dye. […] Fura2 fluorescent emission at 520 nm following excitation with each of 340 and 380 nm was measured in regular intervals both before and after adding test compounds for a total of 90 s per well. Calcium responses were determined by taking the peak 340/380 ratio after first subtracting the ratios obtained prior to addition of test compound. […]
Ca2+ mobilization responses were measured in
Flp-In T-REx 293 cells expressing FFA1-Nluc. Ca2+ responses to increasing concentrations
pre-treated with 10 μM PPTQ. The mode of antagonism for PPTQ was assessed by
N=3 (A-D, F, H) or N=4 (E, G) independent experiments. S ource data are provided as a […]

In the case of `CCCN1C(=O)c2ccccc2[C@@H](C(=O)O)[C@@H]1c1ccc(OCc2cccc(-c3ccc(OCCOCCNc4ccc([N+](=O)[O-])c5nonc45)cc3C)c2)cc1` [TUG-2884], the Kd [1] is reported as 940 nM, the “Specific BRET (%)” value ([2]; [TUG-2884] 1 μM) is reported as 60.2367% and 75.4193% and 48.9635% and 51.5087% and 65.0111% and 65.7411% and the “Specific BRET (%)” value ([2]; [TUG-2884] 2 μM) is reported as 98.0293% and 80.378% and 57.5363% and 68.9417% and 80.7303% and 88.1476%. The “Specific BRET (%)” value ([2]; [TUG-2884] 4 μM, technical duplicates) was 96.6176% and 103.382%.
With `CCCN1C(=O)c2ccccc2[C@@H](C(=O)O)[C@@H]1c1ccc(OCc2cccc(-c3ccc(OCCCS(C)(=O)=O)cc3C)c2)cc1` (racemic) [TUG-2745] the “pIC50 DISCo-BRET SulfoCy5/NBD” value ([3]; 100 nM TUG-2591 and […] TUG-2597, one site model, NC = No competition) was 6.0±0.06, the “Specific BRET (690/540), % of control” value ([3]; log[Ligand] -5) was 0.92 % of control and 2.39 % of control and -9.90 % of control and -8.10 % of control and -2.12 % of control and -2.60 % of control and -5.52 % of control and -2.17 % of control and the “Specific BRET (540/450), % of control” value ([3]; log[Ligand] -5) was 155.62 % of control and 107.52 % of control and 117.08 % of control and 99.92 % of control and 108.86 % of control and 92.88 % of control and 108.34 % of control. For the same compound, the “Specific BRET (690/540), % of control” value ([3]; log[Ligand] -5.5) was 19.71 % of control and 24.68 % of control and 5.40 % of control and 1.46 % of control and 18.78 % of control and 3.37 % of control and 12.72 % of control and 3.96 % of control, the “Specific BRET (540/450), % of control” value ([3]; log[Ligand] -5.5) was 128.42 % of control and 65.71 % of control and 109.72 % of control and 87.17 % of control and 104.75 % of control and 74.68 % of control and 117.49 % of control and the “Specific BRET (690/540), % of control” value ([3]; log[Ligand] -6) was 43.09 % of control and 64.83 % of control and 36.45 % of control and 38.47 % of control and 45.84 % of control and 53.64 % of control and 35.79 % of control and 29.99 % of control. For the same compound, the “Specific BRET (540/450), % of control” value ([3]; log[Ligand] -6) was 103.22 % of control and 89.76 % of control and 90.60 % of control and 69.85 % of control and 83.23 % of control and 146.81 % of control, the “Specific BRET (690/540), % of control” value ([3]; log[Ligand] -6.5) was 78.64 % of control and 74.49 % of control and 82.00 % of control and 53.43 % of control and 70.00 % of control and 66.92 % of control and 69.40 % of control and 69.25 % of control and the “Specific BRET (540/450), % of control” value ([3]; log[Ligand] -6.5) was 86.61 % of control and 51.40 % of control and 85.70 % of control and 71.65 % of control and 68.99 % of control. The “Specific BRET (690/540), % of control” value ([3]; log[Ligand] -7) was 89.69 % of control and 92.82 % of control and 101.91 % of control and 88.41 % of control and 100.24 % of control and 95.91 % of control and 89.88 % of control and 95.21 % of control, the “Specific BRET (540/450), % of control” value ([3]; log[Ligand] -7) was 100.64 % of control and 40.23 % of control and 87.50 % of control and 76.88 % of control and 80.22 % of control and 64.08 % of control and 139.58 % of control and the “Specific BRET (690/540), % of control” value ([3]; log[Ligand] -8) was 95.21 % of control and 98.62 % of control and 92.91 % of control and 107.54 % of control and 94.56 % of control and 87.72 % of control and 98.50 % of control and 104.07 % of control. The “Specific BRET (540/450), % of control” value ([3]; log[Ligand] -8) was 82.89 % of control and 76.59 % of control and 92.89 % of control and 70.83 % of control and 83.23 % of control and 65.66 % of control and 122.27 % of control, the “Specific BRET (690/540), % of control” value ([3]; log[Ligand] -9) was 101.38 % of control and 98.62 % of control and 102.14 % of control and 95.05 % of control and 103.71 % of control and 93.98 % of control and the “Specific BRET (540/450), % of control” value ([3]; log[Ligand] -9) was 57.41 % of control and 46.53 % of control and 87.83 % of control and 70.67 % of control and 68.35 % of control and 75.16 % of control and 107.46 % of control. For the same compound, the “'bottom' of the IC50 curve, DISCo-BRET SulfoCy5/NBD” value ([3]; percentage of binding obtained in the absence of competing ligand, 100 nM TUG-2591 and […] TUG-2597) was -15%, the “pKi DISCo-BRET SulfoCy5/NBD” value ([3]; using Kd TUG-2591 57 nM) was 6.4±0.06 and the “antagonism of site one agonist (TUG-905) Ca2+ response” value ([4]; in words) was “inhibits signalling from site one”. For the same compound, the “Ca2% Response (%)” value ([4]; response to log[T360] -5 in presence of TUG-2745, Sup Fig 6H) was 90.24% and 94.14% and 97.83% and 85.85% and 108.28% and 87.68%, the “Ca2% Response (%)” value ([4]; response to log[T360] -6 in presence of TUG-2745, Sup Fig 6H) was 106.53% and 104.17% and 101.28% and 97.48% and 114.91% and 110.38% and the “Ca2% Response (%)” value ([4]; response to log[T360] -8 in presence of TUG-2745, Sup Fig 6H) was 5.16% and 2.24% and -0.89% and 3.26% and 3.57% and -0.49%. For the same compound, the “Ca2% Response (%)” value ([4]; response to log[T360] -9 in presence of TUG-2745, Sup Fig 6H) was -1.82% and 2.64% and 1.16% and 1.84% and 0.35% and 1.32%, the “Ca2% Response (%)” value ([4]; response to log[T360] -10 in presence of TUG-2745, Sup Fig 6H) was -0.06% and 1.71% and 3.56% and 4.07% and 1.54% and 0.19% and the “Ca2% Response (%)” value ([4]; response to log[T360] -11 in presence of TUG-2745, Sup Fig 6H) was 2.74% and 2.14% and 3.49% and 1.57% and 6.13% and -0.07%. For the same compound, the “Ca2% Response (%)” value ([4]; response to log[TUG-905] -5 in presence of TUG-2745, Sup Fig 6G) was 59.62% and 66.91% and 76.48% and 82.73% and 94.09% and 86.41%.
